Source: patent US20250367301A1, “PHARMACEUTICAL COMPOSITION FOR PREVENTING OR TREATING TRIPLE-NEGATIVE BREAST CANCER, COMPRISING OLIGONUCLEOTIDE AS ACTIVE INGREDIENT” (INTEROLIGO CORPORATION, priority 2021, published 2025)

How the values were obtained:
[1] = tested on: TNBC metastasis after surgical resection; settings: after 50 days post-insertion of the drug/hydrogel patch at the resection site; mice; cited from earlier work
4T1 Luc2 cell line = test: Intracellular uptake by flow cytometry in 4T1 Luc2 cells; type: cell-based, mouse; settings: flow cytometry of 4T1 cells
Experimental: In this experiment, 4T1 Luc2 cell line (ATCC, USA) was used and the cells were cultured using the same method described in 3-1-1.
The medium was replaced with RPMI medium containing 5% FBS and treated with drugs for additional 2, 4, 6, 24 hours, and then DAPI staining was performed after the reaction was completed. The finished samples were compared using a flow cytometer (Beckman Coulter CytoFlex (3 lasers)) to measure the degree of fluorescence expression against the control cell line.

[2] = tested on: 4T1-Luc2 triple-negative breast cancer orthotopic tumor resection model; test: Antitumor efficacy via intraperitoneal injection in TNBC orthotopic animal model (tumor resection model); type: in vivo, female Balb/c mice

Compound: Nc1ncnc2c1ncn2C1O[C@@H]2CO[P@@](=O)([S-])O[C@H]3[C@@H](O)[C@H](n4cnc5c(N)ncnc54)O[C@@H]3CO[P@@](=O)([S-])O[C@@H]1[C@@H]2O.[Na+].[Na+] (stereo partly shown) [STING-RR]
- survival rate [1]: 60%

Compound: (Gem)2-[TGG]4[TTG][TGG]5 (NNTGGTGGTGGTGGTTGTGGTGGTGGTGGTGG; two 5' gemcitabine; modified_base 1 OTHER; 2', 2'-difluoro deoxycytidine; modified_base 2 OTHER) [IO101L, modified oligonucleotide, two gemcitabine at the 5′ end]
- intracellular influx compared with the IO101L-control group (4T1 Luc2 cell line; FIG. 4): significantly superior
- mice with confirmed lung metastasis ([2]; 2 mg intraperitoneal every other day, 10 times, after tumor resection): 3 out of 7
- inhibition of cancer metastasis compared to positive control gemcitabine ([2]; intraperitoneal, post-TNBC tumor resection): significantly inhibited cancer metastasis
- mice surviving until day 76 ([2]; mouse, in vivo, ip): 4 out of 7

Compound: Nc1ccn([C@@H]2O[C@H](CO)[C@@H](O)C2(F)F)c(=O)n1 [gemcitabine, 2′,2′-difluorodeoxycytidine, reference compound]
- time within which all mice died (lung metastasis) ([2]; 1 mg intraperitoneal every other day, 10 times, after tumor resection, 5 mice): ≤ 30 days

Compound: Cy5-(Gem)(Gem)[TGG]4[TTG][TGG]5 [Cy5-labeled IO101L]
- Cy5-labeled IO101L found to enter the cells (4T1 Luc2 cell line; after 24 hours): over 80%
